Like-named read-outs stand apart in the source and are kept apart here. One block for each compound: values may come before it.
Assays:
[1] = biological target: ubiquitin (Homo sapiens, UniProt P0CG47); experiment: Intrinsic fluorescence quenching assay of ubiquitin; details: 50 µM ubiquitin, 0–500 µM compound, ex 274 nm / em 305 nm; read-out: Kd, dissociation constant upon binding to ubiquitin
Experimental: Intrinsic fluorescence quenching assays were performed as described previously. Briefly, intrinsic fluorescence quenching of ubiquitin by indicated compounds was observed by measuring the excitation and emission wavelength at 274 nm and 305 nm respectively of the mixture of 50 µM purified ubiquitin and 0–500 µM compound. Data were fitted to nonlinear regression curves with the equation described previously. F = −∆ε·[PC] + Fo(3) b = (Po + Co + Kd)(4) c = Po·Co(5) [PC] = [b − (b^2 − 4·c)^1/2]/2(6) where Fo and F are the normalized fluorescence intensity of the mixture of ubiquitin without the compound and with different concentrations of the compound, respectively. ∆ε is a difference in the extinction coefficient of the compound between their free and complex forms. [PC] is the concentration of protein/compound complex. Po and Co are the added concentration of ubiquitin and the compound, respectively in each experiment. Kd is the dissociation constant.

[2] = biological target: USP5 (Homo sapiens); experiment: Deubiquitination assay, cleavage of GST-Ubiquitin-HA by USP5 (SDS-PAGE band intensity); format: biochemical
Chain of USP5 (Homo sapiens) (P45974 2-858, other chains not shown): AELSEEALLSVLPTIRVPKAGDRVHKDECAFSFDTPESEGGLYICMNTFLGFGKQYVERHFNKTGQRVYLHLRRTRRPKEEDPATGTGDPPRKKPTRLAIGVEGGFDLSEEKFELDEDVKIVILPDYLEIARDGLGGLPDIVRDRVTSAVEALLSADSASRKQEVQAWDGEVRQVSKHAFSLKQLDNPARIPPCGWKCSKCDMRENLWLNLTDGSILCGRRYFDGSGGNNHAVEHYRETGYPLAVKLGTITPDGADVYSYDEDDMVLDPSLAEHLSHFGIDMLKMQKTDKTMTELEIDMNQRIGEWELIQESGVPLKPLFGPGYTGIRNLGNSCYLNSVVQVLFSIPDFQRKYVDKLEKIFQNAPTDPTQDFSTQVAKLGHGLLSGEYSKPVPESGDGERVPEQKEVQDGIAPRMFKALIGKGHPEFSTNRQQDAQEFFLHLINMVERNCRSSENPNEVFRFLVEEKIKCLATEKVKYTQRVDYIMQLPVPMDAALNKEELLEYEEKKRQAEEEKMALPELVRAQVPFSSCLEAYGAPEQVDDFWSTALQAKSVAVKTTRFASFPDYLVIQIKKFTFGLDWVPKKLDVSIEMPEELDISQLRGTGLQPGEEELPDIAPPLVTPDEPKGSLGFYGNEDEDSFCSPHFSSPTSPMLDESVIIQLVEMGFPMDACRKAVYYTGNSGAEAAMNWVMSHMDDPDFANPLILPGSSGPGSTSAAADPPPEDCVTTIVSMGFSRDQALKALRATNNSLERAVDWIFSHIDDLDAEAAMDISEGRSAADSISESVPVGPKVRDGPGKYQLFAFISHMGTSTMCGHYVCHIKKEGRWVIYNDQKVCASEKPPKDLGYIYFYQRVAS
Experimental: (§1) For in vitro ubiquitination assays, 500 µM of ubiquitin was used for each ubiquitination reaction as described previously, in the absence or presence of 50–500 µM of CR. […] The generation of GST-ubiquitin from GST-Ubiquitin-HA as the mobility shifts were analyzed on 12.5% SDS-PAGE visualized by Coomassie blue staining. Band intensities were quantified by ImageJ [55] and used to generate the IC50 curves (log inhibitor vs. normalized response with variable slope) by GraphPad Prism version 6.0 for Windows (GraphPad Software, San Diego, CA, USA, www.graphpad.com).

[3] = biological target: UCHL1 (Homo sapiens); experiment: Deubiquitination assay, cleavage of GST-Ubiquitin-HA by UCHL1 (SDS-PAGE band intensity); format: biochemical
Chain of UCHL1 (Homo sapiens) (P09936 whole entry, other chains not shown): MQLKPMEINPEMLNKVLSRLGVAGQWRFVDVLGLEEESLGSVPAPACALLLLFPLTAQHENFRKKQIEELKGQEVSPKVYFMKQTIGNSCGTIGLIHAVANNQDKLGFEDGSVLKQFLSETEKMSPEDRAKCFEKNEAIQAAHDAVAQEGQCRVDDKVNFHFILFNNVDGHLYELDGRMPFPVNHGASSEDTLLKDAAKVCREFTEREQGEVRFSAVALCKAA
Experimental: as §1

[4] = design: method as in PMID 27613091; details: previous study ref 35; cited from earlier work
[5] = test system: H1299 cells; experiment: Dox-induced K48- and K63-polyubiquitination in cells (immunofluorescence staining, Western blot); format: cell-based; details: H1299, non-pretreated, 5 µM Dox
Experimental: Figure 6 CR inhibits Dox-induced ubiquitination in the cells. (a) Immunofluorescence staining of H1299 cells treated with or without 5 (+) and 10 (++) μM CR for 12 h followed by addition of Dox to a final concentration of 5 μM, with incubation for 12 h. The cells were subjected to immunofluorescence staining using the antibodies against K48 (αK48) and K63 polyubiquitins (αK63). (b) K48 or K63 polyubiquitin level in Figure 6a was quantified by fluorescence signal. At least seven random regions acquired in confocal images were sampled and normalized against DAPI intensity for quantification. (c) Immunoblots of samples in Figure 6a using the indicated antibodies. […] Statistical significance was calculated by the Student’s t-test (* p < 0.05, ** p < 0.01, *** p < 0.001).
Cells were seeded in the SPL 4 wells cell culture chamber slide 24 h before experiment. […] Subsequently, cells were incubated with primary antibody at 1/200 dilution in blocking buffer overnight and then washed with blocking buffer five times (5 min each) before incubation with fluorescence-conjugated secondary antibody at 1/200 dilution in blocking buffer for 1 h. […] Images acquired in confocal imaging were subjected to fluorescence intensity analysis using ImageJ [55]. Fluorescence signal representing a particular ubiquitin chain level was analyzed and normalized with the intensity of DAPI. […]

[6] = test system: H1299 cells; experiment: Dox-induced cell death, colorimetric cell viability, H1299; format: cell-based
Experimental: (§2) Figure 7 CR enhances Dox sensitivity of cancer cells. (a,b) Enhancement of Dox-induced apoptosis of cancer cells by CR treatment. Dox–induced apoptosis of H1299 (a) and HCT116 (b) was quantified by colorimetric cell viability after treating 10 µM CR for 12 h followed by 12h treatment of Dox (0.0–5.0 µM). […] Caspase activity was quantified by luminogenic caspase activity assay. […] All error bars represent the standard deviation from at least four independent experiments. Statistical significance was calculated by the Student’s t-test (** p < 0.01, *** p < 0.001).
(§3) Cell viability assays were performed as described previously. For the caspase assays, the media were removed, and cells were lysed in 200 µL lysis buffer containing 50 µL Caspase Glo 3/7 solution and incubated for 15 min. Results were observed by measuring the luminescence signal using KOMM-Nr (Berthold Technologies, Bad Wildbad, Germany) and normalized with the total protein concentration measured by the Bradford assay. Data were analyzed using GraphPad Prism version 6.0 for Windows with two tail t-test for statistical data analysis […]
(§4) Figure S8. NSC697923 enhances Dox sensitivity of cancer cells. (a, b) Effect of NSC697923 to cancer cells’ viability in Dox treatment . Dox–induced cell death of H1299 ( a) and HCT116 ( b) was quantified by colorimetric cell viability assay after treating 5 µM NSC697923 for 12 h followed by 12h treatment of Dox (0.0 […]
(§5) NSC697923. Caspase activity was quantified by luminogenic caspase activity assay. All error bars represent the standard deviation from at least 4 independent experiments. *, P<0.05; **, P<0.01; ***, P<0.001.

[7] = test system: HCT116 cells; experiment: Dox-induced cell death, colorimetric cell viability, HCT116; format: cell-based; details: for Effect on Dox-induced cell death, HCT116: 10 µM CR or 5 µM NSC697923 12 h, then Dox 1.25–5.0 μM 12 h
Experimental: as §2
as §3, with “assay.” for “assay. Data were analyzed using GraphPad Prism version 6.0 for Windows with two tail t-test for statistical data analysis”
as §4, §5

[8] = test system: H1299 cells; experiment: Cytotoxicity, cell viability assay; format: cell-based; details: determined by cytotoxicity assays
Experimental: as §3
Figure S7. Cytotoxicity of CR to cancer cells. H1299 cells were cultured in 96 -well plates. CR was added to final concentrations of 0.0 – 50.0 µM, and the cells were incubated for 24 h followed by cell viability assay. All error bars represent the standard deviation from at least 4 independent experiments. Statistical comparisons between groups were determined by Student’s t -test. If p -values are less than 0.05, they are statistically significant . NS, not […]
(1 picture or pasted object on this page, not shown here)

[9] = test system: H1299 cells; experiment: Luminogenic caspase activity assay (Caspase Glo 3/7), H1299; format: cell-based; details: 10 µM CR or 5 µM NSC697923 with Dox
Experimental: as §2
as §3, with “assay.” for “assay. Data were analyzed using GraphPad Prism version 6.0 for Windows with two tail t-test for statistical data analysis”
as §4
(§6) NSC697923. Caspase activity was quantified by luminogenic caspase activity assay. […]

[10] = test system: HCT116 cells; experiment: Luminogenic caspase activity assay (Caspase Glo 3/7), HCT116; format: cell-based; details: 10 µM CR or 5 µM NSC697923 with Dox
Experimental: as §2
as §3, with “assay.” for “assay. Data were analyzed using GraphPad Prism version 6.0 for Windows with two tail t-test for statistical data analysis”
as §4, §6

[11] = 0.6 µM USP5, 5 µM GST-Ubiquitin-HA, 0–45 µM compound, read-out: IC50 USP5 (DUB activity)
[12] = 8 µM UCHL1, 5 µM GST-Ubiquitin-HA, 0–45 µM compound, read-out: IC50 UCHL1 (DUB activity)

SMILES: COc1cc(-c2ccc(/N=N/c3ccc4c(S(=O)(=O)O)cc(S(=O)(=O)O)c(N)c4c3O)c(OC)c2)ccc1/N=N/c1ccc2c(S(=O)(=O)O)cc(S(=O)(=O)O)c(N)c2c1O [CSB6B, Chicago Sky Blue 6B]
Kd [1]: 12 ± 0.678 µM | IC50 [2]: 6.52 ± 0.786 µM | IC50 [3]: 11.2 ± 1.37 µM | Cell membrane penetration [4]: not able to penetrate the cell membrane

Kd [1]: 60.3 ± 2.3 µM | IC50 [2, 11]: 32.5 ± 5 µM
SMILES: COc1cc(-c2ccc(/N=N/c3c(S(=O)(=O)O)cc4cc(S(=O)(=O)O)cc(N)c4c3O)c(OC)c2)ccc1/N=N/c1c(S(=O)(=O)O)cc2cc(S(=O)(=O)O)cc(N)c2c1O [DB15, Direct blue 15]

Kd [1]: 20 ± 0.835 µM | IC50 [2, 11]: 13.7 ± 2.74 µM | IC50 [3, 12]: 33.7 ± 4.05 µM
SMILES: Nc1ccc2c(O)c(N=Nc3ccc(N=Nc4ccc(N=Nc5cc(S(=O)(=O)O)c6cccc(S(=O)(=O)O)c6c5)c5ccccc45)c4ccc(S(=O)(=O)O)cc34)c(S(=O)(=O)O)cc2c1 [DB71, Direct blue 71]

SMILES: COc1cccc2c1C(=O)c1c(O)c3c(c(O)c1C2=O)C[C@@](O)(C(=O)CO)C[C@@H]3O[C@H]1C[C@H](N)[C@H](O)[C@H](C)O1 [Dox, doxorubicin]
K48- and K63-polyubiquitination upon Dox alone [5]: enhanced K48- and K63-polyubiquitination | Dox-induced cell death, Dox alone, H1299 ([6]; Dox 1.25 to 5.0 μM, 12 h): proportional to the Dox concentration | Dox-induced cell death, Dox alone, HCT116 ([7]; Dox 1.25 to 5.0 μM, 12 h): proportional to the Dox concentration

Kd [1]: 13 ± 0.689 µM | IC50 [2, 11]: 9.33 ± 1.58 µM | IC50 [3, 12]: 18.1 ± 2.09 µM
SMILES: Cc1cc(-c2ccc(/N=N/c3ccc4c(S(=O)(=O)O)cc(S(=O)(=O)O)c(N)c4c3O)c(C)c2)ccc1/N=N/c1ccc2c(S(=O)(=O)O)cc(S(=O)(=O)O)c(N)c2c1O [EB, Evans blue]

SMILES: Cc1ccc(S(=O)(=O)c2ccc([N+](=O)[O-])o2)cc1 [NSC697923]
None-toxicity concentration [8]: 5 µM | Effect on Dox-induced cell death, H1299 ([6]; 10 µM CR or 5 µM NSC697923 12 h, then Dox 1.25–5.0 μM 12 h): significantly enhanced Dox-induced cell death | Effect on Dox-induced cell death, HCT116 [7]: only a synergistic effect at low concentrations of Dox | Effect on Dox-induced cell death, HCT116 ([7]; listed as NSC967923): significantly enhanced Dox-induced cell death | Effect on caspase activity of Dox-treated H1299 cells [9]: Enhanced caspase activity | Effect on caspase activity of Dox-treated HCT116 cells [10]: Enhanced caspase activity

Kd [1]: 78.1 ± 4.02 µM | IC50 [2, 11]: > 45 µM
SMILES: Cc1cc(-c2ccc(/N=N/c3c(S(=O)(=O)O)cc4cc(S(=O)(=O)O)cc(N)c4c3O)c(C)c2)ccc1/N=N/c1c(S(=O)(=O)O)cc2cc(S(=O)(=O)O)cc(N)c2c1O [TB, Trypan blue]
